This passage reports Activity, inhibition and IC50 results from ChEMBL document CHEMBL6134895, “Strategic Design and Optimization of Umifenovir Analogues: Balancing Antiviral Efficacy and hERG Toxicity against SARS-CoV-2” (J Med Chem, 2025).

pIC50: −log10 of the molar value. Active and inactive are the calls of the source. The calls are words filed in the database; no cut-off is given here.

For orientation: pIC50 means the IC50 on a negative log10 scale, so that one unit is a factor of ten.

Chain of Voltage-gated inwardly rectifying potassium channel KCNH2 (Q12809 whole entry): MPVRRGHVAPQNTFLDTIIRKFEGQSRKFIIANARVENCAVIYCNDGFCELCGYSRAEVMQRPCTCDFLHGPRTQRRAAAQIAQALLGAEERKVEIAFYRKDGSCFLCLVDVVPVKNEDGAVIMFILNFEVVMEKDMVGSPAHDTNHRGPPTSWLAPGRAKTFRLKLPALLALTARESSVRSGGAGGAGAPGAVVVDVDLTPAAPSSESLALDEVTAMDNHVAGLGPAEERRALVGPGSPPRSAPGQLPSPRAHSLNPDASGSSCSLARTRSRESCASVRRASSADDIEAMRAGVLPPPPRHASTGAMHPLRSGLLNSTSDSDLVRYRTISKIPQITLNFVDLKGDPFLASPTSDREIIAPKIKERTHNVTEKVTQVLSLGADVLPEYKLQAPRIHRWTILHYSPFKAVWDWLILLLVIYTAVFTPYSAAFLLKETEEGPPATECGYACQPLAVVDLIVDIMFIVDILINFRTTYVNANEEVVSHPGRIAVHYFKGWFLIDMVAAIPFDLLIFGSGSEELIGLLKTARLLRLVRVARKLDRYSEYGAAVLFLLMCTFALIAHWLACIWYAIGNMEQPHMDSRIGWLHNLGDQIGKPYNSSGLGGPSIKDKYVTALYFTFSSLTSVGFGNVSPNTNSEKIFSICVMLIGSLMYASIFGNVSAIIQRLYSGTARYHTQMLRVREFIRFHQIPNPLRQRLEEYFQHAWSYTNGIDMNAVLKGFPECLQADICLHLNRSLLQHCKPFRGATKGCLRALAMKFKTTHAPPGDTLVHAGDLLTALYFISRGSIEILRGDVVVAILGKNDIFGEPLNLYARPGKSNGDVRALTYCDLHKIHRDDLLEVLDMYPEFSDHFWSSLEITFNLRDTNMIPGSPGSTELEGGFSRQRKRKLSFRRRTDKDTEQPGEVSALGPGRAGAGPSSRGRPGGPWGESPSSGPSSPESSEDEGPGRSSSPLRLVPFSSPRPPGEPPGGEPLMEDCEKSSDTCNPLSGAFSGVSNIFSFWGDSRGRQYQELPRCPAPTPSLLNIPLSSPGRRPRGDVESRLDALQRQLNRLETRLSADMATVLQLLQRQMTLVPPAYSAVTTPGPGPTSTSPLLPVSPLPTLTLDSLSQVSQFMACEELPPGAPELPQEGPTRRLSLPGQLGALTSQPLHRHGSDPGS

One data set deals with SARS-CoV-2. In words: Antiviral activity against SARS CoV-2 Wuhan infected in African green monkey Vero E6 cells assessed as virus inactivation at 10 uM pretreated for 15 mins followed by compound removal and induction of viral infection for 1 hr and subsequent removal of inoculum and further addition of media containing compound measured after 48 hrs by RT-qPCR analysis relative to control. Conditions: time 48.25 hrs. In kind it is functional, Severe acute respiratory syndrome coronavirus 2. (In general: Quantitative PCR measures a nucleic acid by following its amplification.)
Take `CCOC(=O)c1c(CSc2ccc(F)cc2)n(C)c2cc(Br)c(O)cc12`: the Activity was 99.9%.

The next data set concerns Vero C1008. In words: Cytotoxicity against African green monkey Vero E6 cells assessed as cell viability at 5 uM incubated for 48 hrs by MTT assay. Conditions: chlorocebus sabaeus, vero c1008, 48 h, 5 µM. In kind it is toxicity, cell-based. A general note: Tetrazolium dyes change colour on reduction, which living cells bring about.
`CN1CCC(NC(=O)c2c(CSc3ccc(F)cc3)n(C)c3cc(Br)c(O)cc23)CC1`: the Activity result was “Non-toxic”.

For the compound `CC(C)N1CCN(C(=O)c2c(CSc3ccccc3)n(C)c3cc(Br)c(O)cc23)CC1`, the Activity entry is on record as “Non-toxic”.

`CCOC(=O)c1c(CSc2ccc(C)cc2C)n(Cc2ccc(C)cc2)c2cc(Br)c(O)cc12`: the Activity result is “Non-toxic”.

With `CCOC(=O)c1c(CSc2ccc(F)cc2)n(C)c2cc(Br)c(O)c(CN(C)C)c12`, the Activity entry is listed as “Non-toxic”.

In the case of `CCOC(=O)c1c(CSc2c(C)cc(C)cc2C)n(Cc2ccc(F)cc2)c2cc(Br)c(O)cc12`, the Activity result was “Non-toxic”.

Turning to `CC(C)N1CCN(C(=O)c2c(CSc3ccc(F)cc3)n(C)c3cc(Br)c(O)cc23)CC1`, the Activity result was “Non-toxic”.

As for `Cn1c(CSc2ccc(F)cc2)c(C(=O)Nc2cc[nH]n2)c2cc(O)c(Br)cc21`, the Activity entry is “Non-toxic”.

Turning to `Cn1cc(NC(=O)c2c(CSc3ccccc3)n(C)c3cc(Br)c(O)cc23)cn1`, the Activity result is given as “Non-toxic”.

For `Cc1ccc(Cn2c(CSc3c(C)cc(C)cc3C)c(C(=O)NC3CCN(C)CC3)c3cc(O)c(Br)cc32)cc1`, the Activity entry is listed as “Non-toxic”.

On to `Cn1c(CSc2ccccc2)c(C(=O)N2CCC(N3CCOCC3)CC2)c2cc(O)c(Br)cc21`, for which the Activity result is “Non-toxic”.

`CCOC(=O)c1c(CSc2ccc(F)cc2)n(Cc2ccc(F)cc2)c2cc(Br)c(O)cc12`: the Activity entry is on record as “Non-toxic”.

In the case of `Cn1c(CSc2ccc(F)cc2F)c(C(=O)NC(C)(C)C)c2cc(O)c(Br)cc21`, the Activity result is reported as “Non-toxic”.

As to `CCOC(=O)c1c(CSc2ccccc2)n(Cc2ccc(F)cc2)c2cc(Br)c(O)cc12`, the Activity entry is reported as “Non-toxic”.

As for `CC(C)N1CCC(NC(=O)c2c(CSc3ccccc3)n(C)c3cc(Br)c(O)cc23)CC1`, the Activity entry is listed as “Non-toxic”.

In the case of `CCOC(=O)c1c(CSc2ccc(F)cc2)n(C)c2cc(Br)c(O)cc12`, the Activity result is listed as “Non-toxic”.

With `CCOC(=O)c1c(CSc2ccccc2)n(C)c2cc(Br)c(O)cc12`, the Activity result is given as “Non-toxic”.

In the next data set the test system is SARS-CoV-2. The data set is described as follows: Antiviral activity against SARS CoV-2 Wuhan infected in African green monkey Vero E6 cells assessed as virus inactivation at 1 uM pretreated for 15 mins followed by compound removal and induction of viral infection for 1 hr and subsequent removal of inoculum and further addition of media containing compound measured after 48 hrs by RT-qPCR analysis relative to control. In kind it is functional, Severe acute respiratory syndrome coronavirus 2. Conditions: time 48.25 hrs.
Regarding `CCOC(=O)c1c(CSc2ccccc2F)n(C)c2cc(Br)c(O)cc12`, the Activity is recorded as less than 90%.

For the compound `CCOC(=O)c1c(CSc2ccc(F)cc2)n(C)c2cc(Br)c(O)cc12`, the Activity was less than 90%.

Turning to `CCOC(=O)c1c(CSc2ccccc2)n(C)c2cc(Br)c(O)cc12`, the Activity is less than 90%.

A further data set deals with SARS-CoV-2. In words: Antiviral activity against SARS CoV-2 Wuhan infected in African green monkey Vero E6 cells assessed as inhibition of viral replication pretreated for 15 mins followed by compound removal and induction of viral infection for 1 hr and subsequent removal of inoculum and further addition of media containing compound measured after 48 hrs by RT-qPCR analysis. In kind it is functional, organism-based. Conditions: Severe acute respiratory syndrome coronavirus 2, time 48.25 hrs.
`CCOC(=O)c1c(CSc2ccc(F)cc2)n(C)c2cc(Br)c(O)c(CN(C)C)c12`: the inhibition entry was “Not active; No Significant Effect”.

As for `CCOC(=O)c1c(CSc2ccc(F)cc2)n(Cc2ccc(F)cc2)c2cc(Br)c(O)cc12`, the inhibition result was “Not active; No Significant Effect”.

Consider `CCOC(=O)c1c(CSc2ccccc2F)n(C)c2cc(Br)c(O)cc12`, for which the inhibition entry was “Not active; No Significant Effect”.

A further data set has as its target Voltage-gated inwardly rectifying potassium channel KCNH2 (Homo sapiens, UniProt Q12809). The data set is described as follows: Inhibition of hERG extracted from membrane (unknown origin) incubated for 4 hrs by fluorescence polarization assay.
Settings: not given
In kind it is toxicity, cell membranes. For orientation: hERG is a cardiac potassium channel; its block is linked to QT prolongation.
As to `CC(C)N1CCN(C(=O)c2c(CSc3ccccc3)n(C)c3cc(Br)c(O)cc23)CC1`, the negative-log IC50 (pIC50) was 5.92.

Consider `CCOC(=O)c1c(CSc2ccc(C)cc2C)n(Cc2ccc(C)cc2)c2cc(Br)c(O)cc12`, for which the negative-log IC50 (pIC50) is less than 4.52.

For `Cn1c(CSc2ccc(F)cc2)c(C(=O)Nc2cc[nH]n2)c2cc(O)c(Br)cc21`, the pIC50 is less than 4.52.

In the case of `Cn1c(CSc2ccccc2)c(C(=O)N2CCC(N3CCOCC3)CC2)c2cc(O)c(Br)cc21`, the pIC50 is 4.88.

Consider `CCOC(=O)c1c(CSc2ccccc2)n(Cc2ccc(F)cc2)c2cc(Br)c(O)cc12`, for which the negative logarithm of the IC50 (pIC50) was less than 4.52.

`CC(C)N1CCC(NC(=O)c2c(CSc3ccccc3)n(C)c3cc(Br)c(O)cc23)CC1` showed a pIC50 of 5.15.

Another data set concerns SARS-CoV-2. In words: Antiviral activity against SARS CoV-2 Wuhan infected in African green monkey Vero E6 cells assessed as virus inactivation at 5 uM pretreated for 15 mins followed by compound removal and induction of viral infection for 1 hr and subsequent removal of inoculum and further addition of media containing compound measured after 48 hrs by RT-qPCR analysis relative to control. In kind it is functional, Severe acute respiratory syndrome coronavirus 2. The following applies: time 48.25 hrs.
For `CCOC(=O)c1c(CSc2ccc(C)cc2C)n(Cc2ccc(C)cc2)c2cc(Br)c(O)cc12`, the Activity is given as more than 99%.

As for `CCOC(=O)c1c(CSc2c(C)cc(C)cc2C)n(Cc2ccc(F)cc2)c2cc(Br)c(O)cc12`, the Activity is more than 95%.

With `CCOC(=O)c1c(CSc2ccc(F)cc2)n(Cc2ccc(F)cc2)c2cc(Br)c(O)cc12`, the Activity is more than 95%.

Consider `CCOC(=O)c1c(CSc2ccccc2)n(Cc2ccc(F)cc2)c2cc(Br)c(O)cc12`, for which the Activity is listed as more than 99%.

In another data set the test system is SARS-CoV-2. In words: Antiviral activity against SARS CoV-2 Wuhan infected in African green monkey Vero E6 cells assessed as inhibition of viral replication pretreated for 15 mins followed by compound removal and induction of viral infection for 1 hr and subsequent removal of inoculum and further addition of media containing compound measured after 24 hrs by cell-based ELISA. In kind it is functional, organism-based. The following applies: Severe acute respiratory syndrome coronavirus 2, Wuhan, Vero C1008.
For `CN1CCC(NC(=O)c2c(CSc3ccc(F)cc3)n(C)c3cc(Br)c(O)cc23)CC1`, the negative logarithm of the IC50 (pIC50) was 5.42.

Regarding `CC(C)N1CCN(C(=O)c2c(CSc3ccccc3)n(C)c3cc(Br)c(O)cc23)CC1`, the pIC50 is 5.52.

As for `CCOC(=O)c1c(CSc2ccc(C)cc2C)n(Cc2ccc(C)cc2)c2cc(Br)c(O)cc12`, the pIC50 was 5.68.

With `CCOC(=O)c1c(CSc2c(C)cc(C)cc2C)n(Cc2ccc(F)cc2)c2cc(Br)c(O)cc12`, the pIC50 was 5.89.

Regarding `CC(C)N1CCN(C(=O)c2c(CSc3ccc(F)cc3)n(C)c3cc(Br)c(O)cc23)CC1`, the pIC50 is 5.77.

For the compound `Cn1c(CSc2ccc(F)cc2)c(C(=O)Nc2cc[nH]n2)c2cc(O)c(Br)cc21`, the pIC50 is 5.64.

Turning to `Cn1cc(NC(=O)c2c(CSc3ccccc3)n(C)c3cc(Br)c(O)cc23)cn1`, the pIC50 was 5.82.

Regarding `Cn1c(CSc2ccccc2)c(C(=O)N2CCC(N3CCOCC3)CC2)c2cc(O)c(Br)cc21`, the pIC50 is 5.51.

As to `Cn1c(CSc2ccc(F)cc2F)c(C(=O)NC(C)(C)C)c2cc(O)c(Br)cc21`, the pIC50 is 5.34.

As to `CCOC(=O)c1c(CSc2ccccc2)n(Cc2ccc(F)cc2)c2cc(Br)c(O)cc12`, the negative logarithm of the IC50 (pIC50) was 5.96.

Consider `CC(C)N1CCC(NC(=O)c2c(CSc3ccccc3)n(C)c3cc(Br)c(O)cc23)CC1`, for which the negative logarithm of the IC50 (pIC50) is 5.18.

On to `CCC(CC)COC(=O)[C@H](C)N[P@](=O)(OC[C@H]1O[C@@](C#N)(c2ccc3c(N)ncnn23)[C@H](O)[C@@H]1O)Oc1ccccc1`, for which the pIC50 was 6.12.

For the compound `CCOC(=O)c1c(CSc2ccccc2)n(C)c2cc(Br)c(O)cc12`, the negative-log IC50 (pIC50) was 5.08.

The data set is the same for the next values; noted with them: Severe acute respiratory syndrome coronavirus 2, time 24.25 hrs.
For `Cn1c(CSc2ccc(F)cc2)c(C(=O)NC(C)(C)C)c2cc(O)c(Br)cc21`, the inhibition entry was “inactive”.

For the compound `CCOC(=O)c1c(CSc2ccccc2F)n(C)c2cc(Br)c(O)cc12`, the inhibition entry is “inactive”.

For `CCOC(=O)c1c(CSc2ccc(F)cc2)n(C)c2cc(Br)c(O)cc12`, the inhibition result is “inactive”.

Regarding `CC(C)N1CCC(NC(=O)c2c(CSc3ccc(F)cc3)n(C)c3cc(Br)c(O)cc23)CC1`, the inhibition entry was “inactive”.
